Patent publication US7816520B2, “5,6-diphenyl-1,2,4-triazinic dimeric derivatives and the use thereof in the form of sun-protective agents” (Pierre Fabre Dermo-Cosmetique, priority 2004, dated 2010)
Entries after “also recorded” stand apart in the source; their conditions may differ.

Experiments:
Format in all cases: physicochemical
[1] = Spectral characteristics: molar extinction coefficient and specific absorbance (UV spectrophotometry in ethyl acetate); conditions: 10 μg/ml; for Maximum molar extinction coefficient UVA / Maximum specific absorbance UVA: UVA band; for Maximum molar extinction coefficient UVB / Maximum specific absorbance UVB: UVB band; for Maximum specific absorbance UVA / Maximum specific absorbance UVB: A1cm^1%; for Wavelength of maximum molar extinction coefficient UVA / Wavelength of maximum molar extinction coefficient UVB / Wavelength of maximum specific absorbance UVA / Wavelength of maximum specific absorbance UVB: the 'at ...' part of the cell
Text: The calculation of the molar extinction coefficient (ε) is made from the Beer-Lambert law:
[formula] Wherein: • A=absorbance • I0=intensity of the incident light • I=intensity of the transmitted light • ε=molar extinction (or molar absorbance) coefficient in M^−1 cm^−1 • l=path length in cm • c=concentration in mol/l
The molar extinction coefficient can be expressed with respect to a given mass of the product. It thus makes it possible to be able to compare the coefficients of extinction between products for the same given quantity. This quantity is 1% by weight. The molar extinction coefficient thus becomes the specific absorbance (A1cm^1%).
It is expressed as follows:
[formula] Wherein: • A1cm^1%=specific absorbance • ε=molar extinction coefficient • M=molar mass
The spectral characteristics of the compounds in comparison with commercial filters at a concentration of 10 μg/ml are summarized in tables 2-1 and 2-2.
Procedure: The products are dissolved in ethyl acetate to a concentration of 10 μg/ml. The spectra are measured using a dual-beam spectrophotometer (Varian CARY 50 Scan) between 290 nm and 400 nm.

[2] = Spectral distribution in UVA and UVB, 290 nm to 400 nm; conditions: for Spectral distribution (UV bands absorbed): absorption spectra, FIGS. 1-3; for Absorption peaks: range from 290 nm to 400 nm
Text: The products tested are classified according to spectral distribution in UVA and UVB in a range from 290 nm to 400 nm. It is possible to differentiate them according to their spectral distribution: Products with a narrow spectrum: • Products absorbing in the range between 280 nm and 320 nm (UVB) • Products absorbing in the range between 320 nm and 400 nm (UVA) Products with a broad spectrum: • Products absorbing in UVB (280-320 nm) and UVA-II […] • Products covering UVB and UVA (280-400 nm).

[3] = Solubility study in solvents or excipients used in cosmetics; conditions: for Solubilities: Soluble, DMSO: solvent DMSO; for Solubilities: Soluble, Transcutol: solvent Transcutol; for Solubilities: Soluble (solvent in which the compound is soluble): value = solvent; for Solubilities: Insoluble (solvent in which the compound is insoluble): value = solvent named in the Insoluble column
[4] = Photostability in solution in a chemical solvent (Suntest CPS+); conditions: 25 μg deposited from methanol, absorbance vs non-irradiated control, in % (unit assumed); for Photostability at 5 MED, mean: Suntest irradiation 5 MED; for Photostability at 10 MED, mean: Suntest irradiation 10 MED
Text: A Suntest CPS+(Atlas, Linsengenicht/Altenhasslan, Germany) was used. The Suntest makes it possible to reproduce the solar spectrum and thus to carry out exposures inside at any time without weather constraints.
The radiance of the solar simulator was carefully measured with a spectroradiometer (MSS 2044, Bielefeld, Germany). UVB and UVA intensities were 0.49 mW/cm^2 and 6.32 mW/cm^2, respectively. The MED value defined by COLIPA is 5.6 J/cm^2 in total UV (22). The UV total (UVA+UVB) accounts for 14.8% of the energy delivered by the lamp (power 460 W/m^2). An irradiation dose equivalent to 1 MED corresponds to 37.83 J/cm^2 (in total spectrum) delivered by the lamp.
The Suntest test duration is calculated using the following formula: t=H/E with: • E=illumination energy in W/m^2 • H=irradiation dose in J/m^2 • t=duration of the test in s
The solutions of the compounds are prepared at a concentration of 500 μg/ml in methanol. 50 μl (25 μg) of each solution are deposited in a crystallizer, then irradiated in the Suntest at 5, 10 and/or 20 MED. A non-irradiated control is prepared (deposit of 50 μl of solution and addition of 2.450 ml of methanol). The solvent evaporates during irradiation and the products are taken up in 2.5 ml of methanol. After irradiation, the absorbance of each solution is measured with the UV-visible spectrophotometer (Varian CARY 50 Scan).

| Compound | Maximum molar extinction coefficient UVA [1] [M⁻¹ cm⁻¹] | Maximum molar extinction coefficient UVB [1] [M⁻¹ cm⁻¹] | Maximum specific absorbance UVA [1] | Maximum specific absorbance UVB [1] | Wavelength of maximum molar extinction coefficient UVA [1] | Wavelength of maximum molar extinction coefficient UVB [1] | Wavelength of maximum specific absorbance UVA [1] | Wavelength of maximum specific absorbance UVB [1] | Spectral distribution (UV bands absorbed) [2] | Solubilities: Soluble, DMSO [3] | Solubilities: Soluble, Transcutol [3] | Solubilities: Soluble (solvent in which the compound is soluble) [3] | Solubilities: Insoluble (solvent in which the compound is insoluble) [3] | Absorption peaks [2] [nm] | Photostability at 5 MED, mean [4] | Photostability at 10 MED, mean [4] | Solubility (%) ([3]; excipient Finsol V NT ® (C12-C15 alkyl benzoate)) | Solubility (%) ([3]; excipient Isopropyl adipate) | Solubility (%) ([3]; excipient Myritol 318 ® (caprylic/capric triglycerides)) |
| --- | --- | --- | --- | --- | --- | --- | --- | --- | --- | --- | --- | --- | --- | --- | --- | --- | --- | --- | --- |
| 1,4-bis[5,6-(4,4′-(2-{2-[2-(2-methoxy-ethoxy)-ethoxy]-ethoxy}-ethoxy)-)-diphenyl-1,2,4-triazin-3-yl]benzene [WP41] | 91400 | 72000 | 669 | 527 | at 330 nm | at 305 nm | at 330 nm | at 305 nm | absorb in UVB and UVA | DMSO 2.7% | Transcutol 0.1% | DMC and AcOEt (PS) and MeOH (PS) | EtOH and Hexane and Myritol |  |  |  |  |  |  |
| c1ccc(-c2nnc(-c3ccc(-c4nnc(-c5ccccc5)c(-c5ccccc5)n4)cc3)nc2-c2ccccc2)cc1 [WP30, 1,4-bis(5,6-diphenyl-1,2,4-triazin-3-yl)benzene] | 50200 |  | 928 |  | at 325 nm |  | at 325 nm |  | absorb in UVB and UVA |  |  | DMSO or hot DMF; also recorded: Ethyl acetate (PS) | Acetonitrile and Benzene and Myritol and Transcutol and Water and MeOH and CHCl3 and Acetone | 325 | 77.75 | 56.12 |  |  |  |
| Oc1ccc(-c2nnc(-c3ccc(-c4nnc(-c5ccc(O)cc5)c(-c5ccc(O)cc5)n4)cc3)nc2-c2ccc(O)cc2)cc1 [WP35, 1,4-bis[5,6-(4,4′-dihydroxy)-diphenyl-1,2,4-triazin-3-yl]benzene] | 27800 | 29600 | 460 | 490 | at 355 nm | at 310 nm | at 355 nm | at 310 nm | absorb in UVB and UVA | DMSO 3.5% | Transcutol 0.5% |  | MeOH and CHCl3 and Ethyl acetate and Hexane and Myritol | 355 |  |  |  |  |  |
| CCCCCCCCCCCCCCCCCCOc1ccc(-c2nnc(-c3ccc(-c4nnc(-c5ccc(OCCCCCCCCCCCCCCCCCC)cc5)c(-c5ccc(OCCCCCCCCCCCCCCCCCC)cc5)n4)cc3)nc2-c2ccc(OCCCCCCCCCCCCCCCCCC)cc2)cc1 [WP38, 1,4-bis[5,6-(4,4′-di-octadecyloxy)-diphenyl-1,2,4-triazin-3-yl]benzene] |  |  |  |  |  |  |  |  |  |  |  | Benzene; also recorded: Toluene; also recorded: Myritol; also recorded: Transcutol | MeOH and DMC and AcOEt |  |  |  |  |  |  |
| Cc1ccc(-c2nnc(-c3ccc(-c4nnc(-c5ccc(C)cc5)c(-c5ccc(C)cc5)n4)cc3)nc2-c2ccc(C)cc2)cc1 [WP39, 1,4-bis[5,6-(4,4′-dimethyl)-diphenyl-1,2,4-triazin-3-yl]benzene] | 48200 |  | 808 |  | at 335 nm |  | at 335 nm |  | absorb in UVB and UVA |  |  | DMSO or hot DMF | Water and MeOH and CHCl3 and Acetone and Acetonitrile and Benzene |  |  |  |  |  |  |
| COc1ccc(-c2nnc(-c3ccc(-c4nnc(-c5ccc(OC)cc5)c(-c5ccc(OC)cc5)n4)cc3)nc2-c2ccc(OC)cc2)cc1 [WP40, 1,4-bis[5,6-(4,4′-dimethoxy)-diphenyl-1,2,4-triazin-3-yl]benzene] |  |  |  |  |  |  |  |  |  |  |  | DMSO or hot DMF | Water and MeOH and CHCl3 and Acetone and Acetonitrile and Benzene |  |  |  |  |  |  |
| Brc1ccc(-c2nnc(-c3ccc(-c4nnc(-c5ccc(Br)cc5)c(-c5ccc(Br)cc5)n4)cc3)nc2-c2ccc(Br)cc2)cc1 [WP52, 1,4-bis[5,6-(4,4′-dibromo)-diphenyl-1,2,4-triazin-3-yl]benzene] | 57300 |  | 669 |  | at 330 nm |  | at 330 nm |  | absorb in UVB and UVA |  |  | DMSO or hot DMF | Water and MeOH and CHCl3 and Acetone and Acetonitrile and Benzene and Myritol and Transcutol | 330 |  |  |  |  |  |
| Fc1ccc(-c2nnc(-c3ccc(-c4nnc(-c5ccc(F)cc5)c(-c5ccc(F)cc5)n4)cc3)nc2-c2ccc(F)cc2)cc1 [WP89, 1,4-bis[5,6-(4,4′-difluoro)-diphenyl-1,2,4-triazin-3-yl]benzene] | 47700 |  | 778 |  | at 330 nm |  | at 330 nm |  | absorb in UVB and UVA |  |  | Ethyl acetate |  | 330 |  |  |  |  |  |
| Clc1ccc(-c2nnc(-c3ccc(-c4nnc(-c5ccc(Cl)cc5)c(-c5ccc(Cl)cc5)n4)cc3)nc2-c2ccc(Cl)cc2)cc1 [WP100, 1,4-bis[5,6-(4,4′-dichloro)-diphenyl-1,2,4-triazin-3-yl]benzene] | 43400 |  | 640 |  | at 300 nm |  | at 100 nm |  | absorb in UVB and UVA |  |  | Hot DMSO | DCM and Et2O and Toluene and Octanol and EtOH and Myritol and Transcutol | 300 |  |  |  |  |  |
| c1ccc(-c2nnc(-c3ccc(-c4ccc(-c5nnc(-c6ccccc6)c(-c6ccccc6)n5)cc4)cc3)nc2-c2ccccc2)cc1 [WP135] | 57000 |  | 924 |  | at 330 nm |  | at 330 nm |  | absorb in UVB and UVA |  |  |  |  | 330 | 57.45 | 33.66 |  |  |  |
| CCCCCC[C@H](C)Oc1ccc(-c2nnc(-c3ccc(-c4nnc(-c5ccc(O[C@@H](C)CCCCCC)cc5)c(-c5ccc(O[C@@H](C)CCCCCC)cc5)n4)cc3)nc2-c2ccc(O[C@@H](C)CCCCCC)cc2)cc1 [WP149, 1,4-bis[5,6-bis(4,1-methylheptyloxyphenyl)-1,2,4-triazine-3-yl]benzene] |  |  |  |  |  |  |  |  |  |  |  |  |  |  | 80.40 | 38.16 | 4.5 | 2 | 2.5 |
